Laboratory results reported in US6919306B2, “Method of skin care” (Yaizu Suisankagaku Industry Co. Ltd., priority 1999, dated 2005).

Assays:
[1] = Heat treatment stability (coloration or decomposition); format: physicochemical; details: pH of 2 to 8 at 100° C. for 1 hour
From the text: In the present invention, as a carrier for the skin care agent, foods such as confectioneries, powdered soups, dairy products and beverages, may, for example, be mentioned. As such foods, specifically, gum, candies, tabletted confectioneries, chocolate, jelly, cookies, snacks, corn potage soup, consomme soup, milk, pudding, yogurt, ice cream, lactic acid beverages, alcohol beverages, vitamin beverages, mineral beverages, coffee beverages, near water, nutrition drinks, and the like, may be mentioned.

hyaluronic acid in skin = assay: Influence of orally administered NAG on hyaluronic acid content in skin; format: in vivo, hairless rats; details: for Hyaluronic acid content, Epidermis / Hyaluronic acid content, Corium: hairless rats; for Hyaluronic acid content, Epidermis: 4 weeks (0 mg/kg/day: 31.25); for Hyaluronic acid content, Corium: 4 weeks (0 mg/kg/day: 462.7)
Experimental: Using hairless rats, influence of orally administered NAG on the content of hyaluronic acid in skin was tested. The NAG prepared in PREPARATION EXAMPLE 1 was mixed to a basic feed (Solid feed MF, manufactured by Oriental Kobo Kogyo Kabushiki Kaisha), and rats were permitted to freely ingest the mixture so that the substantial administered amount of NAG would be 0, 20 or 200 mg/kg of body weight/day. Administration was continued for 4 weeks from 9 week instar to 13 week instar, and the hyaluronic acid amounts in skin layer were measured separately for epidermis and corium. In this connection, the measurement of the hyaluronic acid was carried out in accordance with a hyaluronic acid measurement kit (manufactured by Chugai Shindanyaku Co.).

[2] = test system: skin conditions of adult female volunteers; assay: Questionnaire on skin conditions after tablet ingestion; format: in vivo, human; details: NAG 1.2 g per day oral tablets, 60 days
Experimental: 20 adult female volunteers of age ranging from 25 to 45 years old were classified into two groups i.e. a test group and a control group. They were asked to take tablets prepared similarly as in Example 1 as described below at a rate of […], twice a day (NAG ingestion amount per day: 1.2 g) together with water, provided that the tablets for the control group were prepared by using lactose as a placebo instead of NAG. The test period was 60 days, and after the completion of test, they were questioned about skin conditions and the like by questionnaires. No particular restriction was made with respect to diet, makeup and the like during the test period.

For `CC(=O)N[C@H]1C(O)O[C@H](CO)[C@@H](O)[C@@H]1O` (stereo partly shown) [NAG, N-acetylglucosamine], the “coloration or decomposition on heat treatment” value [1] was “not to show coloration or decomposition”, the “hyaluronic acid contents in epidermis and corium versus administered amount” value (hyaluronic acid in skin; hairless rats, 0, 20 or 200 mg/kg/day, 4 weeks) was “tend to increase together in proportion to the administered amounts” and the “Hyaluronic acid content, Epidermis” value (hyaluronic acid in skin; NAG 20 mg/kg/day in feed) was 33.77 μg/g dried tissue. For the same molecule, the “Hyaluronic acid content, Corium” value (hyaluronic acid in skin; NAG 20 mg/kg/day in feed) was 506.6 μg/g dried tissue, the “Hyaluronic acid content, Epidermis” value (hyaluronic acid in skin; NAG 200 mg/kg/day in feed) was 35.09 μg/g dried tissue and the “Hyaluronic acid content, Corium” value (hyaluronic acid in skin; NAG 200 mg/kg/day in feed) was 549.8 μg/g dried tissue. The skin-beautification effect ([2]; versus placebo region) was “recognized”, the “Fine wrinkles decreased (number of persons)” value ([2]; test region, placebo 1) was 5 and the “Skin conditions worsened as a whole (number of persons)” value ([2]; test region, placebo 1) was 0. The “Feel moistness in skin (number of persons)” value ([2]; test region, placebo 2) was 7, the “Feel tension in skin (number of persons)” value ([2]; test region, placebo 2) was 6 and the “Skin conditions improved as a whole (number of persons)” value ([2]; test region, placebo 2) was 8. The “No change (including unidentified) (number of persons)” value ([2]; test region, placebo 5) was 2.
